For data set [1], the target named is T1, SOD1-A4V-Halo (Homo sapiens, UniProt P00441, A5V). Briefly: Two-color imaging of SOD1-A4V-Halo in HEK293T cells under MG132. Particulars: 4 and 5 both at 0.5 μM, 5 μM MG132 for 8 h. It is filed as cell-based. On the set-up: expressed in transfected cells; host or cells: HEK293T. From the text:
(§1) (B-C) Excitation and emission spectra of 4 (with misfolded oligomers of SOD1-A4V-Halo) and 5 (with insoluble aggregates of SOD1-A4V-Halo).
(§2) Combination of 4 and 5 enables a two-color imaging strategy to differentiate insoluble aggregates from soluble oligomers. The inventors carried out live cell imaging experiments, wherein 4 or 5 was used to visualize aggregation of POI-Halo fusion proteins in HEK293T cells. […] To this end, the inventors labeled HEK293T cells expressing SOD1-A4V-Halo simultaneously with 4 and 5 (both at 0.5 μM) for 24 h and treated cells with 5 μM MG132 for 8 h. […] The inventors further carried out experiments using Htt-PolyQ with 110 glutamine repeats (Htt-110Q-Halo).
Target sequence in this assay (P00441 with tags, fused parts or gaps A5V limits assumed): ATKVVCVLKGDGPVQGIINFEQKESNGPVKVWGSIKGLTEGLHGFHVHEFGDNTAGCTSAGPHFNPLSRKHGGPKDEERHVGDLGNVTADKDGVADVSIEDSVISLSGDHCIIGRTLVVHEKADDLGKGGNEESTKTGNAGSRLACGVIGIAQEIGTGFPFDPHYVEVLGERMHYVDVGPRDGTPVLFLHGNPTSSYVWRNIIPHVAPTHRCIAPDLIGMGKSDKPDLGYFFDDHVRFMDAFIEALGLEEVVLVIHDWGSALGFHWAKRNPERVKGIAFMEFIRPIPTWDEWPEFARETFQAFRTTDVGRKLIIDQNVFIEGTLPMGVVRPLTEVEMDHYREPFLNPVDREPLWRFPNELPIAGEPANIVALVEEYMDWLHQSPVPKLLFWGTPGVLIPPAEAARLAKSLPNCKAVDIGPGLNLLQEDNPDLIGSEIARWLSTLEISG

Data set [2] addresses T1, SOD1-A4V-Halo. Briefly: In vitro heat-induced aggregation of SOD1-A4V-Halo conjugates. It is filed as biochemical.
From the text: as §1
The inventors installed Halo-tag reactive warhead to 2, resulting in 5.
Target sequence in this assay (P00441 with tags, fused parts or gaps A5V): as the sequence (P00441 with tags, fused parts or gaps A5V limits assumed) above

The test system of data set [3] is Htt-110Q-Halo. The data set can be described thus: Two-color imaging of Htt-110Q-Halo in HEK293T cells. The following applies: control. Type of data set: cell-based, human.
From the text: as §1, §2

In data set [4] the target is T2, Htt-110Q-Halo (Homo sapiens, UniProt P42858).
T2 construct: using the Huntingtin exon 1 protein (Htt) with expansion of a polyglutamine tract within its N-terminal domain; expressed in transfected cells; host or cells: HEK293T
T2 sequence (P42858 with tags, fused parts or gaps): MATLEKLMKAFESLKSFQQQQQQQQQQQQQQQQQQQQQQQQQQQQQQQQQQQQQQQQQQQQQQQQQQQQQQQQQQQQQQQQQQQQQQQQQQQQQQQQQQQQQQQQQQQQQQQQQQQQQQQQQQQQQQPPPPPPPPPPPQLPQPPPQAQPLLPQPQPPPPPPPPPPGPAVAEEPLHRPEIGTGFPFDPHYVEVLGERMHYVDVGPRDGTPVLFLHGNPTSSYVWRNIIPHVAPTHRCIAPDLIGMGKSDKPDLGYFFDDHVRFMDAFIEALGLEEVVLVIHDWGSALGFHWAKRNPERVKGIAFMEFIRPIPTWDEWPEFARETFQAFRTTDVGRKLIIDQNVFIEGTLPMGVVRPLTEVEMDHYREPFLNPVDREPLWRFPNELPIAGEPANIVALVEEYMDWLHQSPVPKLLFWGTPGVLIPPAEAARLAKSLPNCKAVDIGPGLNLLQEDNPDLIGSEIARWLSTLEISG
The description is as above. Type of data set: cell-based.
From the text: as §1, §2

The mark [5] stands for this setting: 4 with misfolded oligomers, 5 with insoluble aggregates of SOD1-A4V-Halo.

SMILES strings stand for the structures.

From US20210094922A1, “Dyes for Analysis of Soluble Protein Aggregates or Misfolded Protein Oligomers” (The Penn State Research Foundation, priority 2018, published 2021) come the findings set out here.

With `CC1=N/C(=C\c2ccc(N(C)C)cc2)C(=O)N1CC(=O)N[C@H]1CC[C@H](C(=O)NCCOCCOCCCCCCCl)CC1` [Compound 5], the “fluorescence of perinuclear SOD1 A4V-Halo granules” value in data set [1] is on record as “dark fluorescence to a background level”. The molar extinction coefficient in data set [2] is recorded as 23,716 M^−1·cm^−1. Moreover, in data set [2] (setting [5]), the Em is reported as 520 nm and the Ex is recorded as 450 nm. The “fluorescence in cells co-expressing Halo-tag and Htt-110Q-mCherry” value in data set [3] is reported as “fluorescence was not observed”. For the same molecule, in data set [4], the “fluorescence of Htt-110Q-Halo inclusions” value is “exhibit fluorescence from both 4 and 5”.
